The source of these data is patent publication US20060069132A1, “Azolecarboxamide herbicides” (priority 2004, published 2006).

One assay concerns soybean. The assay is described as follows: Test C pre-/postemergence herbicide test. Format: in vivo, Glycine max. To be noted: preemergence; for Plant response rating (0 = no effect, 100 = complete control), Soybean: 125 g ai/ha. An outline of the steps: (§1)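 Seeds were planted and sprayed preemergence with test chemicals in a non-phytotoxic solvent mixture containing surfactant; postemergence treatments went onto plants 2 to 18 cm tall (1- to 4-leaf stage). After 12 to 14 days in a greenhouse, injury was rated visually against untreated controls on a 0–100 scale.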

For the next assay, the system named is velvetleaf. The experiment in a line: Test B pre-/postemergence herbicide test. It counts as in vivo, Abutilon theophrasti. The note with it: for Plant response rating (0 to 100 scale), Velvetleaf: 0 is no effect, 100 is complete control, preemergence. An outline of the steps: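 Response was scored visually 13 to 15 days after treatment against untreated greenhouse controls, 0 meaning no effect and 100 complete control. Formulations (solvent mixture plus surfactant) went onto soil after planting, onto foliage of 1- to 4-leaf plants, and onto 2-leaf plants in a flooded paddy set including rice and barnyardgrass.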

The next assay relates to woolly cupgrass. The assay is described as follows: Test C pre-/postemergence herbicide test. It counts as in vivo, Eriochloa villosa. The note with it: preemergence; for Plant response rating (0 = no effect, 100 = complete control), Cupgrass, Woolly: 125 g ai/ha. In a few lines: as §1
Another assay concerns goosegrass. The experiment in a line: Test C pre-/postemergence herbicide test. It counts as in vivo, Eleusine indica. To be noted: preemergence; for Plant response rating (0 = no effect, 100 = complete control), Goosegrass: 125 g ai/ha. In a few lines:
as §1

For another assay, the system named is morningglory. The assay is described as follows: Test C pre-/postemergence herbicide test. Format: in vivo, Ipomoea coccinea. The arrangement: key to Plant response rating, Morningglory: 0 = no effect, 100 = complete control. To be noted: preemergence; for Plant response rating (0 = no effect, 100 = complete control), Morningglory: 125 g ai/ha. In a few lines:
as §1

A further assay concerns bermudagrass. The assay is described as follows: Test C pre-/postemergence herbicide test. It counts as in vivo, Cynodon dactylon. To be noted: preemergence; for Plant response rating (0 = no effect, 100 = complete control), Bermudagrass: 125 g ai/ha. An outline of the steps: as §1
Setting [1] is: 500 g ai/ha, scale 0 to 100 (0 no effect, 100 complete control), visual, 12 to 14 days.
[2] abbreviates: 125 g ai/ha, visual rating, scale 0 (no effect) to 100 (complete control), postemergence.
[3] abbreviates: Postemergence, 500 g ai/ha, scale 0 (no effect) to 100 (complete control).
Where [4] appears, read: 62 g ai/ha, scale 0 to 100, 0 no effect, 100 complete control.

Regarding `CCc1nn(C(C)(C)C)nc1C(=O)Nc1cccc(C(=S)N(C)C)c1` [Compound 395], the “Plant response rating, Soybean” value in the assay with soybean (62 g ai/ha, scale 0 to 100) was found to be 75; with soybean (250 g ai/ha, scale 0-100), 100; in the assay with soybean (setting [1]), 100. Further, the “Plant response rating (0 = no effect, 100 = complete control), Soybean” value in the assay with soybean amounted to 85. Moreover, the “Plant response rating (0 to 100 scale), Velvetleaf” value in the assay on velvetleaf (125 g ai/ha) is on record as 80. The “Velvetleaf plant response rating” value was found to be 30 with velvetleaf (setting [2]) and 60 in the assay with velvetleaf (setting [3]). Also, the “Plant response rating, Cupgrass, Woolly” value in the assay on woolly cupgrass (62 g ai/ha, scale 0 to 100) came out at 85; in the assay with woolly cupgrass (250 g ai/ha, scale 0-100), 100; with woolly cupgrass (setting [1]), 100. In the assay on woolly cupgrass, the “Plant response rating (0 = no effect, 100 = complete control), Cupgrass, Woolly” value amounted to 95. Further, the “Plant response rating, Goosegrass” value in the assay with goosegrass (62 g ai/ha, scale 0 to 100) stood at 95; with goosegrass (250 g ai/ha, scale 0-100), 100; with goosegrass (setting [1]) it was 100. For the same compound, in the assay with goosegrass, the “Plant response rating (0 = no effect, 100 = complete control), Goosegrass” value amounted to 95. For the same compound, the “Plant response rating, Morningglory” value with morningglory (62 g ai/ha, scale 0 to 100) is listed as 15; with morningglory (250 g ai/ha, scale 0-100), 100; in the assay with morningglory (setting [1]) it was 100. Further, the “Plant response rating (0 = no effect, 100 = complete control), Morningglory” value in the assay on morningglory is 80. In addition, the “Plant response rating, Bermudagrass” value in the assay on bermudagrass (setting [4]) is given as 95; with bermudagrass (250 g ai/ha, scale 0-100), 100; with bermudagrass (setting [1]) it was 100. The “Plant response rating (0 = no effect, 100 = complete control), Bermudagrass” value in the assay with bermudagrass is 100.
For `CCc1nn(C(C)(C)C)nc1C(=S)Nc1cccc(C(=S)N(C)C)c1` [Compound 396], the “Plant response rating, Soybean” value in the assay on soybean (62 g ai/ha, scale 0 to 100) amounted to 0; in the assay on soybean (250 g ai/ha, scale 0-100), 100; in the assay with soybean (setting [1]), 100. In the assay on soybean, the “Plant response rating (0 = no effect, 100 = complete control), Soybean” value is given as 75. For the same compound, the “Plant response rating (0 to 100 scale), Velvetleaf” value with velvetleaf (125 g ai/ha) was found to be 80. Further, the results for the “Velvetleaf plant response rating” value in the assay on velvetleaf (setting [2]) and in the assay with velvetleaf (setting [3]) were 20 and 50, respectively. For the same compound, the “Plant response rating, Cupgrass, Woolly” value is 60 in the assay on woolly cupgrass (62 g ai/ha, scale 0 to 100); 100 in the assay with woolly cupgrass (250 g ai/ha, scale 0-100); 100 with woolly cupgrass (setting [1]). In addition, the “Plant response rating (0 = no effect, 100 = complete control), Cupgrass, Woolly” value in the assay with woolly cupgrass was 90. Besides, the “Plant response rating, Goosegrass” value in the assay with goosegrass (62 g ai/ha, scale 0 to 100) is on record as 95; in the assay with goosegrass (250 g ai/ha, scale 0-100), 100; with goosegrass (setting [1]) it was 100. Besides, in the assay with goosegrass, the “Plant response rating (0 = no effect, 100 = complete control), Goosegrass” value was 100. For the same compound, the “Plant response rating, Morningglory” value with morningglory (62 g ai/ha, scale 0 to 100) was 0; in the assay with morningglory (250 g ai/ha, scale 0-100), 25; in the assay on morningglory (setting [1]), 70. In addition, in the assay on morningglory, the “Plant response rating (0 = no effect, 100 = complete control), Morningglory” value stood at 0. Also, the “Plant response rating, Bermudagrass” value is 95 in the assay with bermudagrass (setting [4]); 100 in the assay with bermudagrass (250 g ai/ha, scale 0-100); 100 in the assay on bermudagrass (setting [1]). For the same compound, the “Plant response rating (0 = no effect, 100 = complete control), Bermudagrass” value in the assay on bermudagrass came out at 100.
On to `C=CCNC(=O)c1cccc(NC(=O)c2nn(C(C)(C)C)nc2CC)c1` [Compound 414], for which the “Plant response rating, Soybean” value in the assay on soybean (62 g ai/ha, scale 0 to 100) is on record as 0; in the assay on soybean (setting [1]), 65. In addition, the “Plant response rating (0 = no effect, 100 = complete control), Soybean” value in the assay with soybean stood at 20. In the assay with velvetleaf (125 g ai/ha), the “Plant response rating (0 to 100 scale), Velvetleaf” value was 70. Also, the “Velvetleaf plant response rating” value in the assay with velvetleaf (setting [3]) was 70; in the assay on velvetleaf (postemergence, 125 g ai/ha, scale 0 to 100), 50. Further, the “Plant response rating, Cupgrass, Woolly” value in the assay on woolly cupgrass (62 g ai/ha, scale 0 to 100) stood at 0; in the assay with woolly cupgrass (250 g ai/ha, scale 0-100) it was 95; in the assay on woolly cupgrass (setting [1]), 100. The “Plant response rating (0 = no effect, 100 = complete control), Cupgrass, Woolly” value in the assay with woolly cupgrass is 80. The “Plant response rating, Goosegrass” value with goosegrass (62 g ai/ha, scale 0 to 100) was determined as 95; with goosegrass (250 g ai/ha, scale 0-100) it was 100; in the assay on goosegrass (setting [1]), 100. For the same compound, in the assay on goosegrass, the “Plant response rating (0 = no effect, 100 = complete control), Goosegrass” value worked out at 100. In addition, the “Plant response rating, Morningglory” value came out at 10 in the assay with morningglory (62 g ai/ha, scale 0 to 100) and 95 in the assay on morningglory (setting [1]). Also, in the assay on morningglory, the “Plant response rating (0 = no effect, 100 = complete control), Morningglory” value is given as 55. The “Plant response rating, Bermudagrass” value in the assay on bermudagrass (setting [4]) worked out at 100; in the assay with bermudagrass (250 g ai/ha, scale 0-100), 100; in the assay on bermudagrass (setting [1]), 100. Also, the “Plant response rating (0 = no effect, 100 = complete control), Bermudagrass” value in the assay on bermudagrass amounted to 100.
